Results published in the NIST ThermoML archive (doi:10.1016/j.jct.2012.09.012).
Numbers after ± are expanded uncertainties.

Experiments:
[1] = Liquid, Vibrating tube method
[2] = molar heat capacity at constant pressure; details: 101 kPa, Liquid, Small sample (50 mg) DSC
[3] = molar heat capacity at constant pressure; xn = mol fraction of the nth substance listed; details: 101 kPa, Liquid, Small sample (50 mg) DSC, x2 = 0
[4] = xn = mol fraction of the nth substance listed; details: Liquid, Vibrating tube method, x2 = 0

CC1=CC[C@H]2C[C@@H]1C2(C)C [(S)-2-pinene]
mass density [kg/m3], [1]
Details | 283.15 K | 298.15 K | 313.15 K | 328.15 K | 343.15 K | 358.15 K
20000 kPa | 880 ± 1.2 | 868.8 ± 1.2 | 858 ± 1.2 | 846.7 ± 1.2 | 835.9 ± 1.2 | 825 ± 1.2
25000 kPa | 883.2 ± 1.2 | 872.1 ± 1.2 | 861.3 ± 1.2 | 850.4 ± 1.2 | 839.7 ± 1.2 | 829.2 ± 1.2
30000 kPa | 886.3 ± 1.3 | 875.3 ± 1.3 | 864.7 ± 1.3 | 854 ± 1.3 | 843.8 ± 1.3 | 833.3 ± 1.3
35000 kPa | 889.4 ± 1.3 | 878.6 ± 1.3 | 867.9 ± 1.3 | 857.5 ± 1.3 | 847.7 ± 1.3 | 837.4 ± 1.3
40000 kPa | 892.5 ± 1.3 | 881.9 ± 1.3 | 871.3 ± 1.3 | 861.1 ± 1.3 | 851.4 ± 1.3 | 841.5 ± 1.3

[2]
Details | molar heat capacity at constant pressure [J/K/mol]
313.16 K | 250.67 ± 8.2
318.16 K | 252.03 ± 8.2
323.16 K | 256.12 ± 8.2
328.22 K | 257.48 ± 8.2
333.22 K | 260.21 ± 8.2
338.19 K | 264.29 ± 8.2
343.18 K | 267.02 ± 9.5
348.15 K | 269.74 ± 9.5
353.18 K | 272.47 ± 9.5
358.15 K | 275.19 ± 9.5
363.18 K | 277.92 ± 9.5
368.17 K | 279.28 ± 9.5
373.21 K | 282 ± 9.5
378.2 K | 284.73 ± 9.5
383.17 K | 287.45 ± 9.5
388.2 K | 291.54 ± 9.5
393.17 K | 292.9 ± 9.5
398.2 K | 294.27 ± 9.5
403.19 K | 296.99 ± 9.5
408.16 K | 299.71 ± 9.5
413.19 K | 301.08 ± 9.5
418.19 K | 303.8 ± 9.5

C=C1CCC2CC1C2(C)C (stereo not drawn) [β-pinene]
mass density [kg/m3], [1]
Details | 283.15 K | 298.15 K | 313.15 K | 328.15 K | 343.15 K | 358.15 K
20000 kPa | 891.3 ± 1 | 880.2 ± 1 | 869.3 ± 1 | 858.2 ± 1 | 847.7 ± 1.1 | 837 ± 1.1
25000 kPa | 894.2 ± 1 | 883.3 ± 1 | 872.6 ± 1.1 | 861.7 ± 1.1 | 851.4 ± 1.1 | 840.9 ± 1.1
30000 kPa | 897 ± 1.1 | 886.3 ± 1.1 | 875.7 ± 1.1 | 865.2 ± 1.1 | 855 ± 1.1 | 844.8 ± 1.1
35000 kPa | 899.9 ± 1.1 | 889.3 ± 1.1 | 878.8 ± 1.1 | 868.7 ± 1.1 | 858.6 ± 1.1 | 848.7 ± 1.1
40000 kPa | 902.6 ± 1.1 | 892.2 ± 1.1 | 882 ± 1.1 | 872.2 ± 1.1 | 862.1 ± 1.1 | 852.6 ± 1.1

[2]
Details | molar heat capacity at constant pressure [J/K/mol]
313.16 K | 249.31 ± 8.2
318.16 K | 252.03 ± 8.2
323.16 K | 254.76 ± 8.2
328.22 K | 257.48 ± 8.2
333.22 K | 260.21 ± 8.2
338.19 K | 262.93 ± 8.2
343.18 K | 265.66 ± 8.2
348.15 K | 268.38 ± 9.5
353.18 K | 271.11 ± 9.5
358.15 K | 273.83 ± 9.5
363.18 K | 277.92 ± 9.5
368.17 K | 280.64 ± 9.5
373.21 K | 283.37 ± 9.5
378.2 K | 284.73 ± 9.5
383.17 K | 287.45 ± 9.5
388.2 K | 290.18 ± 9.5
393.17 K | 292.9 ± 9.5
398.2 K | 295.63 ± 9.5
403.19 K | 299.71 ± 9.5
408.16 K | 302.44 ± 9.5
413.19 K | 303.8 ± 9.5
418.19 K | 306.53 ± 9.5

C=C1CCC2CC1C2(C)C (stereo not drawn) [β-pinene] + CC1=CC[C@H]2C[C@@H]1C2(C)C
[3]
Details | molar heat capacity at constant pressure [J/K/mol]
313.16 K | 249.31 ± 8.2
318.16 K | 252.03 ± 8.2
323.16 K | 254.76 ± 8.2
328.22 K | 257.48 ± 8.2
333.22 K | 260.21 ± 8.2
338.19 K | 262.93 ± 8.2
343.18 K | 265.66 ± 8.2
348.15 K | 268.38 ± 9.5
353.18 K | 271.11 ± 9.5
358.15 K | 273.83 ± 9.5
363.18 K | 277.92 ± 9.5
368.17 K | 280.64 ± 9.5
373.21 K | 283.37 ± 9.5
378.2 K | 284.73 ± 9.5
383.17 K | 287.45 ± 9.5
388.2 K | 290.18 ± 9.5
393.17 K | 292.9 ± 9.5
398.2 K | 295.63 ± 9.5
403.19 K | 299.71 ± 9.5
408.16 K | 302.44 ± 9.5
413.19 K | 303.8 ± 9.5
418.19 K | 306.53 ± 9.5

mass density [kg/m3], [4]
Details | 283.15 K | 298.15 K | 313.15 K | 328.15 K | 343.15 K | 358.15 K
20000 kPa | 891.3 ± 1 | 880.2 ± 1 | 869.3 ± 1 | 858.2 ± 1 | 847.7 ± 1.1 | 837 ± 1.1
25000 kPa | 894.2 ± 1 | 883.3 ± 1 | 872.6 ± 1.1 | 861.7 ± 1.1 | 851.4 ± 1.1 | 840.9 ± 1.1
30000 kPa | 897 ± 1.1 | 886.3 ± 1.1 | 875.7 ± 1.1 | 865.2 ± 1.1 | 855 ± 1.1 | 844.8 ± 1.1
35000 kPa | 899.9 ± 1.1 | 889.3 ± 1.1 | 878.8 ± 1.1 | 868.7 ± 1.1 | 858.6 ± 1.1 | 848.7 ± 1.1
40000 kPa | 902.6 ± 1.1 | 892.2 ± 1.1 | 882 ± 1.1 | 872.2 ± 1.1 | 862.1 ± 1.1 | 852.6 ± 1.1
